# Reference: ChEMBL document CHEMBL1201862, “PubChem BioAssay data set” (2004)
# Active and inactive are the calls of the source.
# Columns and labels:
# [1] = growth suppression of beta-catenin-knockout colon cells, dose response, cell-based, HCT116, human colon tumor (AID 1045); format: functional;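 further: HCT116 colon tumor cells with beta catenin knocked out; cells exposed to compound for 60 hours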
# [2] = cytotoxicity in MIN6 insulinoma cells, dose response, cytotoxicity control, cell-based, mouse insulinoma (AID 2122); format: functional;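 further: confirmatory high-throughput counterscreen run to flag cytotoxic compounds; mouse MIN-6 beta cells carrying an insulin promoter eGFP reporter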
# [3] = Shn3 3'UTR reporter inhibitors, dose response, cell-based, Clone20 osteoblasts, firefly luciferase, cherry-picked (AID 624132); format: functional;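 further: firefly luciferase luminescence from reporter carrying the Shn3 3'UTR in osteoblasts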
# [4] = insulin promoter down-regulators in MIN6 cells, imaging, high-content screening, mouse beta cells (AID 1628); format: functional
# [5] = HepG2 cell cytotoxicity, dose response, cytotoxicity control for Shn3 inhibitor project, CellTiter-Glo, cherry-picked (AID 624134); format: functional, cell-based
# [6] = growth suppression of PTEN-null colon cells, dose response, cell-based, HCT116 PTEN knockout (AID 1047); format: functional;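 further: HCT116 colon tumor cells with PTEN knocked out; cells exposed to compound for 60 hours before readout; potency for loss of cell viability measured by luminescence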
# [7] = inhibitors of intracellular T. cruzi replication, confirmation, NIH3T3 host cells, beta-gal luminescence (AID 2044); format: functional, cell-based;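 further: intracellular parasites grown in NIH/3T3 mouse fibroblasts as host cells; luminescent beta-galactosidase reporter signal from transgenic T. cruzi replicating inside host cells; inhibitors lower the luminescence signal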
# [8] = control 3'UTR Renilla luciferase suppression, dose response, counter-screen for Shn3 inhibitor project, cell-based, Clone20-Shn3RL, cherry-picked (AID 624133); format: functional
# [9] = cytotoxicity toward NIH3T3 fibroblasts, dose response, counter-screen, cell-based, ATP luminescence, mouse fibroblasts (AID 2010); format: functional;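 further: cells exposed to compound for about 90 hours before reading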
# A-375 [10] = experiment: MITF: Counter assay: A375 proliferation Measured in Cell-Based System Using Plate Reader - 2084-03_Inhibitor_Dose_DryPowder_Activity. [Related pubchem assays (depositor defined):AID488944]; format: functional; settings: Homo sapiens
# A-375 [11] = experiment: A375 melanoma cell viability reduction, dose response, counter-screen for MITF modulator project, cherry-pick samples, set 2 (AID 540335); format: functional, cell-based; settings: Homo sapiens
# [12] = target: T1, Microphthalmia-associated transcription factor (Homo sapiens, UniProt O75030); experiment: TRPM1 promoter luciferase signal decrease, dose response, MITF inhibitor project, cell-based, SK-MEL-5, cherry-picked, set 3 (AID 493073); format: functional
# T1 sequence (O75030 whole entry): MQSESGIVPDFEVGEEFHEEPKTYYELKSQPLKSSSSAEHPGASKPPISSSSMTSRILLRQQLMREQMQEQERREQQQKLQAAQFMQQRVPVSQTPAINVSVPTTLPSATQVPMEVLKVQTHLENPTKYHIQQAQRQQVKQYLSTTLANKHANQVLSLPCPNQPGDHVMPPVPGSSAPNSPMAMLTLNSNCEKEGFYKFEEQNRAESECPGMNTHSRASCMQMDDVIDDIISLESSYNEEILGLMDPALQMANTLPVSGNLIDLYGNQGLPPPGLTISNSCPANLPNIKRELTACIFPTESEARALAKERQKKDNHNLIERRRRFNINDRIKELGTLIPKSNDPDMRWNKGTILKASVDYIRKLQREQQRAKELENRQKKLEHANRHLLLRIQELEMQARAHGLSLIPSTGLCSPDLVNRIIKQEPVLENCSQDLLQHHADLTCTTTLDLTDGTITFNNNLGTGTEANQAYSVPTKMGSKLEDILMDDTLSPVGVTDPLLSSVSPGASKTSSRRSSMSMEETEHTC
# [13] = inhibitors of clade B AD8 Env fusion, dose response, cell-based, cherry-pick (AID 652062); format: functional;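 further: luciferase signal from cell-cell fusion driven by HIV-1 clade B AD8 Env; potency is for inhibitors of fusion seen as a drop in luminescence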
# HEK293 [14] = experiment: cells; settings: Homo sapiens
# HEK293 [15] = experiment: cells; settings: Homo sapiens; remark: listed apart in the source
# [16] = CEM21 lymphoblast cell cytotoxicity, dose response, cytotoxicity control for viral fusion inhibitor project, CellTiter-Glo luminescence, cherry-picked (AID 652042); format: functional, cell-based;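 further: potency for signal decrease meaning cytotoxicity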
# [17] = off-target signal loss in HeLa-CEM21 co-culture – HeLa F-luc CTL cells, cherry-picked, counter-screen for HIV-1 Env fusion inhibitor project, dose response (AID 652040); format: functional, cell-based;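 further: potency for signal decrease marking cytotoxic or nonspecific inhibition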
# [18] = ZM109 Env clade C HIV-1 fusion inhibitors, dose response, HeLa effector, CEM target cells, luciferase, cherry-pick (AID 652058); format: functional, cell-based
# [19] = inhibitors of HIV Env-driven cell fusion, dose response, cherry-pick (AID 652057); format: functional, cell-based
# [20] = LGR2 antagonists, dose response, cell-based, HEK293, CRE-luciferase reporter, cherry pick, set 2 (AID 743343); format: functional;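 further: transfected cells were stimulated with diluted bursicon conditioned medium after compound addition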
# [21] = MC4R antagonists, dose response, counter-screen for LGR2 antagonist project, cell-based, plate reader, cherry pick (AID 743444); format: functional;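 further: transfected HEK 293 cells stimulated with alpha-MSH peptide; potency of inhibitors of the alpha-MSH evoked signal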
# [22] = HepG2 cell cytotoxicity, dose response, cytotoxicity control, plate reader, cherry-pick, antagonist series (AID 743416); format: functional, cell-based
# Jurkat = experiment: antigen receptor-induced NF-kB inhibitors, dose response, Jurkat, luciferase reporter, luminescence, B- and T-cell (AID 489004); format: functional, cell-based; settings: Homo sapiens;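 further: NF-kB luciferase reporter Jurkat cells stimulated with PMA plus ionomycin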
# [23] = cytotoxicity in HEK-293T NF-kB-Luc cells, dose response, cytotoxicity control for B/T-cell NF-kB inhibitor project, cell-based, uHTS hits (AID 489019); format: functional;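 further: IC50 reflects cytotoxicity as loss of cell viability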
# [24] = A549 cell cytotoxicity, dose response, cytotoxicity control, plate reader, cherry-pick, antagonist series (AID 743412); format: functional, cell-based
# Paired box protein Pax-8 = Paired box protein Pax-8 (Homo sapiens, UniProt Q06710); experiment: inhibitors of PAX8-driven TPO luciferase reporter, dose response, RMG-I cells, cherry-pick (AID 687027); format: functional, cell-based;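 further: luciferase reporter driven by Pax8 target thyroperoxidase promoter measured by SteadyGlo luminescence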
# Sequence of Paired box protein Pax-8 (Q06710 whole entry): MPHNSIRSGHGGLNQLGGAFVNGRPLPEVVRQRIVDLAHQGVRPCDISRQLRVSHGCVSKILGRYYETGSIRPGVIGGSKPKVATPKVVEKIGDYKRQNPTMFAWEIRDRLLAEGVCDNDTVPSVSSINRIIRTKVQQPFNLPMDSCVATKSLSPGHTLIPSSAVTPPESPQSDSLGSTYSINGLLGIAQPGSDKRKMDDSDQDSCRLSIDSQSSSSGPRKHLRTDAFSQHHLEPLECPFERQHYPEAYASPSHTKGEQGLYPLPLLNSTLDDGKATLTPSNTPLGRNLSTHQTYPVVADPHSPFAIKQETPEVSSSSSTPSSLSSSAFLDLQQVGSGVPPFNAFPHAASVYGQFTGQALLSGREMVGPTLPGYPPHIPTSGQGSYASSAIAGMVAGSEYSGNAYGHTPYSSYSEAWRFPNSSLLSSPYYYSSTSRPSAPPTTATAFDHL
# cells [25] = format: functional, cell-based; settings: HEK-CNG
# Galanin receptor type 3 = target: T2, Galanin receptor type 3 (Homo sapiens, UniProt O60755); experiment: Fluorescence-based cell-based primary high throughput dose response assay to identify antagonists of the Galanin Receptor 3 (GalR3).; format: functional
# T2 sequence (O60755 whole entry): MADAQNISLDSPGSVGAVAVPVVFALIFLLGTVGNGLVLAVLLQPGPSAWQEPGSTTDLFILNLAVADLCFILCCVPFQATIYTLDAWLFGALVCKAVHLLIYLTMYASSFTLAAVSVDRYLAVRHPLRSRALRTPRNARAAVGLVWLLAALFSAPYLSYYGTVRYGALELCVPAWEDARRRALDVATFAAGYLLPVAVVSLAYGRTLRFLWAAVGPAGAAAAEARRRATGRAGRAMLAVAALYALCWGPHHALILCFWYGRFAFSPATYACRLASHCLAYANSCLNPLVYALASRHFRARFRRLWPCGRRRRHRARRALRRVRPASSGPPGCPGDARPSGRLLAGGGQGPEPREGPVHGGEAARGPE
# [26] = Luminescence Cell-Based Dose Response HTS to Identify Inhibitors of 5'UTR Stem-Loop Driven Prion Protein mRNA Translation in H4 Neuroglioblastoma Cells. [Related pubchem assays: 1827 (Project Summary), 1813 (Primary HTS)]; format: functional
# [27] = inhibitors of SNCA 5'UTR-driven reporter translation, confirmation, H4 neuroglioma cells, luminescence (AID 1988); format: functional, cell-based
# [28] = inhibitors of firefly luciferase expression or activity, dose response, H4 neuroglioma cells, luminescence (AID 1990); format: functional, cell-based
# [29] = target: Intestinal-type alkaline phosphatase (Mus musculus, UniProt P24822); experiment: PubChem AID 488785; format: functional
# Sequence of Intestinal-type alkaline phosphatase (Mus musculus, UniProt P24822) (P24822 whole entry): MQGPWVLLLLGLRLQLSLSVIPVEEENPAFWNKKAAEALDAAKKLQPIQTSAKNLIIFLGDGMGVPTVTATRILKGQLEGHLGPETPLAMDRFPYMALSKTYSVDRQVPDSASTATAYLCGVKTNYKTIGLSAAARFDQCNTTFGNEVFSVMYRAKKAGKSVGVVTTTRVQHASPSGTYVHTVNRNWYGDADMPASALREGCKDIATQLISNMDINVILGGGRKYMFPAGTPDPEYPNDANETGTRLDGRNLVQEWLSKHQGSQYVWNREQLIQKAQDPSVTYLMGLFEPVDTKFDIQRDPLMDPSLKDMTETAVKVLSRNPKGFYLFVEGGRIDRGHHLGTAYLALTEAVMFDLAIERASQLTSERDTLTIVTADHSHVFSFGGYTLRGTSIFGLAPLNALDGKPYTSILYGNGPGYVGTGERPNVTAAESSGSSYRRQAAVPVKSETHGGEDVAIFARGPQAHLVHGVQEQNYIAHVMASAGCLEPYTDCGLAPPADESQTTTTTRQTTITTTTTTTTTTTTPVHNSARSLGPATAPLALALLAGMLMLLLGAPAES
# [30] = Vero E6 cell cytotoxicity, dose response, cytotoxicity control for non-replicating M. tuberculosis project, secondary assay (AID 492998); format: functional, VeroE6; settings: Vero C1008
# cells [31] = format: functional
# [32] = target: Intestinal-type alkaline phosphatase (Homo sapiens, UniProt P09923); experiment: inhibition of human intestinal alkaline phosphatase – biochemical, dose response (AID 488876); format: functional
# Sequence of Intestinal-type alkaline phosphatase (Homo sapiens, UniProt P09923) (P09923 whole entry): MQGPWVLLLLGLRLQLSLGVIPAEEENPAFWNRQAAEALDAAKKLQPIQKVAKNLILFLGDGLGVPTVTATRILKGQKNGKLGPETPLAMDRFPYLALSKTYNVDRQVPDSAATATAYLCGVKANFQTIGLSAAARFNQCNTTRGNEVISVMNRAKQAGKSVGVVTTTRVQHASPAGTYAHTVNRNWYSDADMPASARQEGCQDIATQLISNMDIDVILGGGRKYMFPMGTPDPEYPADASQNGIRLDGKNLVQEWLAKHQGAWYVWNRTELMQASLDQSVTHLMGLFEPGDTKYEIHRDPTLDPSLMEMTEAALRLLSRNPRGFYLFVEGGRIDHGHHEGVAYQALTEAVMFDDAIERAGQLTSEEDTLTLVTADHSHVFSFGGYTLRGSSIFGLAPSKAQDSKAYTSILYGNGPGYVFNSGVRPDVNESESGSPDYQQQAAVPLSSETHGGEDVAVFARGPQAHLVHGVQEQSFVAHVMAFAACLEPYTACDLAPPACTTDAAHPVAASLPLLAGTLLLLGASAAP
# [33] = target: Heat shock protein HSP 90-alpha (Homo sapiens, UniProt P07900); format: functional, organism-based
# [34] = target: T3, Alkaline phosphatase, tissue-nonspecific isozyme (Homo sapiens, UniProt P05186); experiment: TNAP enzyme inhibition by screening hits, dose response, selectivity assay for mouse IAP inhibitor project, biochemical, human TNAP, uHTS hits (AID 488906); format: functional
# T3 sequence (P05186 whole entry): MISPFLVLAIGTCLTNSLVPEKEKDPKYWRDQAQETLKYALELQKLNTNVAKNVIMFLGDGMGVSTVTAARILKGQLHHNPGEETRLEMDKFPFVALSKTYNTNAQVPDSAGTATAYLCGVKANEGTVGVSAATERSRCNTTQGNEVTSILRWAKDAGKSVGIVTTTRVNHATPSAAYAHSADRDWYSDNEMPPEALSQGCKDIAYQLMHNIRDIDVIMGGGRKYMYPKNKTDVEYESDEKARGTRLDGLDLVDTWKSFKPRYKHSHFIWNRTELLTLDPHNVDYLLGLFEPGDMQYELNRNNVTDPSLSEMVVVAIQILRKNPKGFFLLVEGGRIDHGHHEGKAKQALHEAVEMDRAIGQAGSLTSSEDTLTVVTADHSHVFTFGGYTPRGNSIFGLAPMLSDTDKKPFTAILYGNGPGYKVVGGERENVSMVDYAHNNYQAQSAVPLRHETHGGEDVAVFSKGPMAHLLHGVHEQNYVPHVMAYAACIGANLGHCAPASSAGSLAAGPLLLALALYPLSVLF
# [35] = microbe, parasite or virus in culture; format: functional; settings: Mycobacterium tuberculosis
# [36] = THP-1 cell cytotoxicity, dose response, cytotoxicity control for non-replicating M. tuberculosis project (AID 489025); format: functional
smiles,measurement,setting,value
O=C(c1ccc(F)cc1)C(CN1CCOCC1)c1ccccc1 (centres undefined),EC50,[1],2.42 µM (active)
same,IC50,[2],3.27 µM (active)
same,AC50,[3],17.6 µM (active)
same,IC50,[4],4.17 µM (active)
same,AC50,[5],19.4 µM (active)
same,EC50,[6],3.36 µM (active)
same,EC50,[7],4.06 µM (active)
same,AC50,[8],6.91 µM (active)
same,EC50,[9],10.9 µM (active)
same,AC50,A-375 [10],> 35 µM (active)
same,AC50,A-375 [11],> 35 µM (active)
same,AC50,[12],5.96 µM (active)
COc1ccc(CCN2C(=O)c3[nH]nc(-c4ccccc4O)c3C2c2ccccc2)cc1OC (centres undefined),AC50,[13],0.621 µM (active)
same,EC50,HEK293 [14],> 59.7 µM (inactive)
same,EC50,HEK293 [15],> 59.7 µM (inactive)
same,AC50,[16],52.7 µM (active)
same,AC50,[17],0.929 µM (active)
same,AC50,[18],0.625 µM (active)
same,AC50,[19],0.376 µM (active)
COc1ccc(C(=O)CN2C(=O)c3ccccc3S2(=O)=O)cc1,AC50,[13],2.54 µM (active)
same,AC50,[20],0.675 µM (active)
same,AC50,[21],0.691 µM (active)
same,AC50,[22],> 52 µM (inactive)
same,AC50,[17],2.16 µM (active)
same,IC50,Jurkat,1.08 µM (active)
same,AC50,[18],10.7 µM (active)
same,AC50,[19],1.07 µM (active)
same,IC50,[23],> 80 µM (inactive)
same,AC50,[24],> 52 µM (inactive)
same,AC50,Paired box protein Pax-8,3.53 µM (active)
CC(=O)c1cn(Cc2ccccc2C#N)c2ccccc12,EC50,cells [25],> 29.9 µM (inactive)
same,IC50,Galanin receptor type 3,3.07 µM (active)
same,IC50,[2],0.64 µM (active)
same,AC50,[3],0.527 µM (active)
same,IC50,[4],1.01 µM (active)
same,AC50,[5],2.2 µM (active)
same,IC50,Jurkat,30 µM (inactive)
same,AC50,[8],4.28 µM (active)
same,IC50,[23],> 80 µM (inactive)
COc1ccc(OC)c(-c2cc(C(=O)Nc3c(C)nn(Cc4ccccc4)c3C)no2)c1,EC50,HEK293 [14],> 59.6 µM (inactive)
same,EC50,HEK293 [15],> 59.6 µM (inactive)
CC1CCN(Cc2nc(-c3ccc(Cl)cc3)no2)CC1,AC50,A-375 [10],> 35 µM (active)
same,AC50,A-375 [11],> 35 µM (active)
same,AC50,[12],7.62 µM (active)
Cc1ccc(-c2nc(C#N)c(NCc3ccco3)o2)cc1,AC50,A-375 [10],> 35 µM (active)
same,AC50,A-375 [11],> 35 µM (active)
CCCCn1c(SCc2ccc(Cl)cc2)nc2c1c(=O)[nH]c(=O)n2C,EC50,[26],16.2 µM (active)
same,EC50,HEK293 [14],> 59.6 µM (inactive)
same,EC50,HEK293 [15],> 59.6 µM (inactive)
same,EC50,[27],17 µM (active)
same,EC50,[28],15.8 µM (active)
CCOC(=O)[C@@H](C)N(Cc1ccc(OC)cc1)S(=O)(=O)N(Cc1ccccc1)[C@H](C(=O)OC)C(C)C,EC50,HEK293 [14],> 59.7 µM (inactive)
same,EC50,HEK293 [15],> 59.7 µM (inactive)
O=C(N/N=C/c1ccc([N+](=O)[O-])o1)c1sc2ccccc2c1Cl,IC50,[29],7.89 µM (active)
same,CC50,[30],> 20 µM (active)
same,IC50,cells [31],2.18 µM (active)
same,IC50,[32],> 100 µM (inactive)
same,AC50,[33],4.4 µM (active)
same,IC50,[34],> 100 µM (inactive)
same,CC50,[35],20.2 µM (active)
same,CC50,[36],19.1 µM (active)
same,AC50,A-375 [10],> 11 µM (active)
same,AC50,A-375 [11],> 11 µM (active)
same,AC50,[12],4.61 µM (active)
